Reference: US9669060B2, “Compositions for preventing and treating uterine disease” (CORNELL UNIVERSITY, priority 2009, dated 2017)
In brackets after ≈: the same amount, converted by molar mass. Read-outs that look alike come from different tables or passages of the source.

Assays:
[1] = system: Escherichia coli recovered from uterine secretion from Holstein dairy cows (n = 80 isolates); assay: Antimicrobial susceptibility assay, MIC by broth microdilution (CLSI); assay type: cell-based; conditions: for MIC50 / MIC90: Escherichia coli, 18 hours at 37° C.; for MIC50: MIC that inhibits at least 50% of isolates; for MIC90: MIC that inhibits at least 90% of isolates
Description: The MIC determinations were performed by broth microdilution method as described by the Clinical and Laboratory Standards Institute (CLSI, 2008) recommendations. […] The dilutions for each antimicrobial tested ranged from 0.25 μg/ml to 256 μg/ml for all the antibiotics and all tests were performed in duplicates. The cultures were diluted in Mueller-Hinton broth to 10^5 CFU/ml and an aliquot of 200 μl of the diluted culture was added to microtiter plate wells, containing various concentrations of the antimicrobials, to a total volume of 300 μl per well. The assays were carried out in duplicates and the required controls of adequacy of the broth to support the growth of the microorganism and the sterility of the broth done.
In addition to the uterine E. coli isolates tested, the reference strain of E. coli ATCC 25922 was included as quality control for MIC determination, as recommended by the CLSI (CLSI, 2008). The MIC that inhibits at least 50% (MIC50) and at least 90% (MIC90) of the isolates, as well as the minimum and maximum MIC, were also derived.

[2] = system: Escherichia coli isolated from the uterus of postpartum Holstein dairy cows (57 isolates); assay: Kinetic (spectrophotometric) MIC and growth curve test with antimicrobials; assay type: cell-based; conditions: for MIC: Escherichia coli, minimum concentration that completely inhibited growth for 2-3 hours after beginning of stationary phase of control, estimated from graphics, read-out: Mean MICs; for Mean OD600: growth curve during 10 hours at 37° C., Mueller-Hinton broth
Text: Growth was periodically assessed spectrophotometrically in a microplate reader (Synergy™ 2, BioTek) at 600 nm. Curves were plotted with average of the duplicates. The results of this kinetic test were statistically analyzed to derive the mean MIC (mMIC) of the isolates for each antimicrobial tested.
A general linear mixed model was used to analyze the effect of the different antibiotic concentrations and bacteriophage MOIs on the growth curve of 57 E. coli isolates and determinate the mean values. The outcome variable was the OD600 of the Mueller-Hinton (BBL™) broth culture, which was modeled as a Gaussian (normally distributed data) variable. The assumption that the residuals were normally distributed was satisfied by visually evaluating the distribution plot of the studentized residuals. The independent variables offered to the model were: treatment (bacteriophage cocktail and all antimicrobials tested) and time (from 1 until 10). The interaction of treatment and time was also included in the model. […] This implies that data points were correlated within each E. coli isolate. To account appropriately for within correlation of the optical density, we modeled the error term by imposing a first-order autoregressive covariance structure. Variables and interaction were considered significant when their P-values<0.05.

E. coli from calves = conditions: cited from earlier work
uropathogenic E. coli = conditions: fimH immunization, murine model (Langermann et al., 1997); cited from earlier work

Compound	isolates resistant (CLSI criteria) [1]	MIC50 [1] [µg/mL]	MIC90 [1] [µg/mL]	MIC [2] [µg/mL]	Mean OD600 [2]	occurrence of ampicillin-resistant E. coli (E. coli from calves; feces of healthy lactating dairy calves (Sawant et al., 2007)) [%]	E. coli isolates resistant to both florfenicol and chloramphenicol (E. coli from calves; diarrheic dairy calves (White et al., 2000)) [%]	prevention of in vivo colonization of the bladder mucosa (uropathogenic E. coli) [%]	isolates susceptible [1] [%]	prevalence rate of ceftiofur-resistant E. coli (E. coli from calves; Bradford et al., 1999) [%]	prevalence rate of ceftiofur-resistant E. coli (E. coli from calves; Sawant et al., 2007) [%]	occurrence of ceftiofur-resistant E. coli (E. coli from calves; diarrheic calves (White et al.)) [%]
CC1(C)S[C@@H]2[C@H](NC(=O)[C@H](N)c3ccccc3)C(=O)N2[C@H]1C(=O)O [Ampicillin, ampicillin]	33.7%	16 (≈ 45.8 µM)	32 (≈ 91.6 µM)	16	0.14	48	–	–	–	–	–	–
CS(=O)(=O)c1ccc([C@@H](O)[C@@H](CF)NC(=O)C(Cl)Cl)cc1 [Florfenicol, florfenicol]	100%	16 (≈ 44.7 µM)	16 (≈ 44.7 µM)	16	0.10	–	85	–	–	–	–	–
fimH: fimH adhesin of type 1 pili used for immunization in a murine model (Langermann et al., 1997)	–	–	–	–	–	–	–	99	–	–	–	–
[H]/N=C(/N)N[C@H]1[C@H](O)[C@@H](O)[C@H](O[C@@H]2O[C@@H](C)[C@](O)(C=O)[C@H]2O[C@@H]2O[C@@H](CO)[C@H](O)[C@@H](O)[C@@H]2NC)[C@@H](N/C(N)=N\[H])[C@@H]1O [Streptomycin, streptomycin]	none of them were resistant	8 (≈ 13.8 µM)	8 (≈ 13.8 µM)	8	0.11	–	–	–	–	–	–	–
CO/N=C(\C(=O)N[C@@H]1C(=O)N2C(C(=O)O)=C(CSC(=O)c3ccco3)CS[C@H]12)c1csc(N)n1 [Ceftiofur, ceftiofur]	1.2%	1 (≈ 1.91 µM)	1 (≈ 1.91 µM)	16	0.05	–	–	–	98.7	11	13	69
CN(C)[C@@H]1C(O)=C(C(N)=O)C(=O)[C@@]2(O)C(O)=C3C(=O)c4c(O)cccc4[C@@](C)(O)[C@H]3C[C@@H]12 [Tetracycline, tetracycline]	–	1 (≈ 2.25 µM)	2 (≈ 4.5 µM)	2	0.05	–	–	–	–	–	–	–
CN[C@@H]1[C@H](O)[C@H](NC)[C@H]2O[C@@]3(O)C(=O)C[C@@H](C)O[C@H]3O[C@@H]2[C@H]1O [Spectinomycin, spectinomycin]	none of them were resistant	32 (≈ 96.3 µM)	64 (≈ 193 µM)	32	0.17	–	–	–	–	–	–	–
O=C(N[C@H](CO)[C@H](O)c1ccc([N+](=O)[O-])cc1)C(Cl)Cl [Chloramphenicol, chloramphenicol]	100%	64 (≈ 198 µM)	128 (≈ 396 µM)	128	0.18	–	–	–	–	–	–	–
